In article PMC9181938, “Fluorinated Analogues of Lepidilines A and C: Synthesis and Screening of Their Anticancer and Antiviral Activity” (Molecules, 2022):
Like-named read-outs stand apart in the source and are kept apart here.

How the values were obtained:
[1] = Cytotoxicity MTT assay (0.1–1000 µM), CC50; format: cell-based, Macaca mulatta; settings: Macaca mulatta, LLC-MK2 cells, LLC-MK2, MTT, 48 h; read-out: CC50 Normal Cell Lines LLC-MK2
LLC-MK2 cells [2] = assay: Cytotoxicity MTT assay (0.1–1000 µM), CC50; format: cell-based, Macaca mulatta; settings: Table S2, range 0.1-1000 µM, LLC-MK2; read-out: Cell line (CC50 M) LLC-MK2
[3] = Cytotoxicity screening at 10 µM (MTT); format: cell-based, Cercopithecus aethiops; settings: Cercopithecus aethiops, Vero cells, read-out: Cell line (viability %) Vero
[4] = Cytotoxicity screening at 10 µM (MTT); format: cell-based, Macaca mulatta; settings: Macaca mulatta, LLC-MK2 cells, read-out: Cell line (viability %) LLC-MK2
NCTC clone 929 cells = assay: Cytotoxicity screening at 10 µM (MTT); format: cell-based, Mus musculus; settings: 48 h
[5] = Cytotoxicity screening at 10 µM (MTT); format: cell-based, Human; settings: human, MRC-5 cells, read-out: Cell line (viability %) MRC-5
[6] = Cytotoxicity screening at 10 µM (MTT); format: cell-based, Human; settings: human, HeLa cells, read-out: Cell line (viability %) HeLa
[7] = tested on: Human parainfluenza virus type 3 (HPIV-3); assay: Antiviral activity assay (0.1–1000 µM), IC50; format: cell-based
Experimental: (§1) Antiviral properties of compounds 1e–1g, 1e[PF6], 8a–8d, and 9a were assessed against five viruses: Human herpesvirus 1 (HSV-1, VR-539), Human parainfluenza virus type 3 (HPIV-3, VR-93), Human adenovirus 5 (AdV5, VR-5), Human herpesvirus 5 (HCMV, VR-977), and Encephalomyocarditis virus (EMCV, VR-1479). Viruses were purchased from the American Type Culture Collection (ATCC, Manassas, VA, USA).
(§2) All tested compounds were dissolved in DMSO (dimethyl sulfoxide, Sigma-Aldrich, Darmstadt, Germany) and then suspended in Minimum Essential Medium (MEM; Sigma-Aldrich, Darmstadt, Germany) supplemented with 2% heat-inactivated fetal bovine serum (FBS; Sigma-Aldrich, Darmstadt, Germany), 2 mM L-glutamine (Sigma-Aldrich, Darmstadt, Germany), and 100 units/mL penicillin G with […] streptomycin (Sigma-Aldrich, Darmstadt, Germany).
(§3) Investigated cells were propagated in Minimum Essential Medium (MEM; Sigma-Aldrich, Darmstadt, Germany) supplemented with 10% heat-inactivated fetal bovine serum (FBS; Sigma-Aldrich, Darmstadt, Germany) and 100 units/mL penicillin G with […] streptomycin (Sigma-Aldrich, Darmstadt, Germany). After reaching 80–90% confluency, cells were harvested with trypsin (Life Technologies, Warsaw, Poland) and seeded into 96-well microplates at 2 × 10^5 cells/mL after overnight incubation of cells at 37 °C in a humidified atmosphere containing 5% CO2.
(§4) The culture medium was removed from confluent cells grown in 96-well microplates, and the cells were inoculated with virus solutions in MEM supplemented with 2% FBS and antibiotics (HSV-1 MOI 0.005, 1000 virions/mL; HPIV-3 MOI 0.01, 2000 virions/mL; AdV5 MOI 0.005, 1000 virions/mL; EMCV 0.005, 1000 virions/mL; HCMV 20 PFU/well (plaque-forming units per well). After a 1-h (HSV-1, HPIV-3, AdV5, and EMCV) or 2-h adsorption period (HCMV), residual viral particles were removed, and infected cells were further incubated with MEM supplemented with 2% FBS containing compound concentrations in the range from 0.1 to 1000 µM [38]. All experiments were carried out in triplicate. The cell monolayers were incubated with the investigated compounds at 37 °C in a humidified atmosphere containing 5% CO2 until a cytopathic effect (CPE) was visible. Viral infection was evaluated by the MTT assay (as described previously) or plaque reduction assay. HCMV plaques were counted under an inverted microscope, Olympus IX73 (Olympus, Tokyo, Japan). Antiviral activity was expressed as the concentration required to reduce the number of viral plaques to 50% of the control (virus-infected but untreated).

[8] = tested on: Encephalomyocarditis virus (EMCV); assay: Antiviral screening at 10 µM; format: cell-based; settings: Cardiovirus A, EMCV-infected cells, read-out: Cell line (viability %) EMCV
Experimental: (§5) Antiviral properties of compounds 1a, 1c, 1a[PF6], 1c[PF6], 9b[PF6], 9c[PF6], 10a–10d, 2a, and 2b were assessed against five viruses: Human herpesvirus 1 (HSV-1, VR-539), Human parainfluenza virus type 3 (HPIV-3, VR-93), Human adenovirus 5 (AdV5, VR-5), Human herpesvirus 5 (HCMV, VR-977), and Encephalomyocarditis virus (EMCV, VR-1479). Viruses were purchased from the American Type Culture Collection (ATCC, Manassas, VA, USA).
as §2
(§6) Vero, LLC-MK2, NCTC clone 929, MRC-5, and HeLa cells were propagated in Minimum Essential Medium (MEM; Sigma-Aldrich, Darmstadt, Germany) supplemented with 10% heat-inactivated fetal bovine serum (FBS; Sigma-Aldrich, Darmstadt, Germany) and 100 units/mL penicillin G with […] streptomycin (Sigma-Aldrich, Darmstadt, Germany). Upon reaching 80–90% confluency, cells were harvested with 0.25% trypsin in 1 mM EDTA (Life Technologies, Warsaw, Poland) and seeded onto 96-well microplates at 2 × 10^5 cells/mL. After overnight incubation of cells at 37 °C in a humidified atmosphere containing 5% CO2, the culture medium was removed, and cells were inoculated with the respective virus solution in MEM supplemented with 2% FBS and antibiotics (HSV-1 MOI 0.005, 1000 virions/mL; HPIV-3 MOI 0.01, 2000 virions/mL; AdV5 MOI 0.005, 1000 virions/mL, EMCV MOI 0.005, 1000 virions/mL, HCMV 20 PFU (plaque forming units) per well). After a 1-h (HSV-1, HPIV-3, AdV5, and EMCV) or 2-h adsorption period (HCMV), the residual virus was removed, and the infected cells were further incubated with a 100 μL freshly prepared solution of tested compounds diluted with a maintenance medium supplemented with 2% FBS to obtain compound concentrations of 10 µM. The final concentration of DMSO in the medium was 0.1%. All experiments were carried out in triplicate. The cells monolayers were incubated with the compounds at 37 °C in a humidified atmosphere containing 5% CO2 until the typical cytopathic effect (CPE) was visible. Viral infection was evaluated by the MTT assay or plaque reduction assay (HCMV). After incubation with drugs, the cells were treated with 3-(4,5-dimethylthiazol-2-yl)-2,5-diphenyltetrazolium bromide dye solution (MTT, Sigma-Aldrich, Darmstadt, Germany) (25 μL, 5 mg/mL) for 2 h and lysed with solvent solution (100 μL) containing: DMF (Sigma-Aldrich, Darmstadt, Germany) (45 mL), SDS (Sigma-Aldrich, Darmstadt, Germany) (13.5 g), and distilled water (55 mL). After overnight incubation at 37 °C, the optical density at 550 nm and a reference wavelength of 670 nm were measured on a microplate spectrophotometer, Varioskan Lux (Thermo Fisher Scientific, Waltham, MA, USA). The number of HCMV plaques was counted under an inverted microscope Olympus IX73 (Olympus, Tokyo, Japan).

[9] = tested on: Human adenovirus 5 (AdV5); assay: Antiviral screening at 10 µM; format: cell-based; settings: AdV5-infected cells
Experimental: as §5, §2, §6

[10] = tested on: Human herpesvirus 1 (HSV-1); assay: Antiviral screening at 10 µM; format: cell-based; settings: HSV-1-infected cells
Experimental: as §5, §2, §6

[11] = tested on: Human parainfluenza virus type 3 (HPIV-3); assay: Antiviral screening at 10 µM; format: cell-based; settings: HPIV-3-infected cells
Experimental: as §5, §2, §6

LLC-MK2 cells [12] = assay: Cytotoxicity screening at 10 µM (MTT); format: cell-based, Macaca mulatta; settings: 48 h
[13] = Cytotoxicity screening at 10 µM (MTT); format: cell-based, Mus musculus; settings: Mus musculus, NCTC clone 929 cells, read-out: Cell line (viability %) NCTC clone 929
[14] = Cytotoxicity MTT assay (0.1–1000 µM), CC50; format: cell-based, Cercopithecus aethiops; settings: Cercopithecus aethiops, Vero cells, read-out: CC50 Normal Cell Lines Vero
[15] = Cytotoxicity MTT assay (0.1–1000 µM), CC50; format: cell-based, Mus musculus; settings: Mus musculus, NCTC clone 929 cells, NCTC clone 929, MTT, 48 h; read-out: CC50 Normal Cell Lines NCTC Clone 929
[16] = Cytotoxicity MTT assay (0.1–1000 µM), CC50; format: cell-based, Human; settings: human, MRC-5 cells, MRC-5, MTT, read-out: CC50 Normal Cell Lines MRC-5
[17] = Cytotoxicity MTT assay (0.1–1000 µM), CC50; format: cell-based, Human; settings: human, HeLa cells, MTT, 48 h, read-out: CC50 Cancer Cell Lines HeLa
[18] = Cytotoxicity MTT assay (0.1–1000 µM), CC50; format: cell-based, Human; settings: human, A549 cells, read-out: CC50 Cancer Cell Lines A549
[19] = Cytotoxicity MTT assay (0.1–1000 µM), CC50; format: cell-based, Human; settings: human, HepG2 cells, read-out: CC50 Cancer Cell Lines HepG2
[20] = tested on: Human herpesvirus 5 (HCMV); assay: Antiviral activity assay (0.1–1000 µM), IC50, plaque reduction; format: cell-based; settings: Human betaherpesvirus 5, 20 PFU/well
Experimental: as §1, §2, §3, §4

[21] = tested on: Encephalomyocarditis virus (EMCV); assay: Antiviral activity assay (0.1–1000 µM), IC50; format: cell-based; settings: Cardiovirus A, MOI 0.005, read-out: IC50 EMCV
Experimental: as §1, §2, §3, §4

[22] = tested on: Human adenovirus 5 (AdV5); assay: Antiviral activity assay (0.1–1000 µM), IC50; format: cell-based; settings: Human mastadenovirus C; AdV5, MOI 0.005; read-out: IC50 AdV5
Experimental: as §1, §2, §3, §4

[23] = tested on: Human herpesvirus 1 (HSV-1); assay: Antiviral activity assay (0.1–1000 µM), IC50; format: cell-based; settings: Human alphaherpesvirus 1; HSV-1, MOI 0.005
Experimental: as §1, §2, §3, §4

[24] = Table S4, range 0.1-1000 µM, HPIV-3, read-out: IC50 (M) HPIV-3
[25] = Human respirovirus 3, HPIV-3, MOI 0.01, read-out: IC50 HPIV-3

Cc1c(C)[n+](Cc2ccccc2)cn1Cc1ccccc1 [Compound 1a, lepidiline A, reference compound]
CC50 at 48 h [1]: < 80 µM
CC50 (LLC-MK2 cells [2]): 67.7 ± 2.52 µM
viability at 48 h, 10 µM [3]: 90.5%
viability at 48 h, 10 µM [4]: 76.3%
Cell line (viability %) NCTC clone 929 (NCTC clone 929 cells): 86.0%
viability at 48 h, 10 µM [5]: 90.2%
viability at 48 h, 10 µM [6]: 43%
IC50 [7, 24]: > 6.77e-05 M
viability at 10 µM [8]: 7.4%
Cell line (viability %) AdV5 [9]: 45.8%
Cell line (viability %) HSV-1 ([10]; antiviral screening): 48.0%
Cell line (viability %) HPIV-3 ([11]; antiviral screening): 86.0%

COc1cccc(Cn2c[n+](Cc3ccccc3)c(C)c2C)c1 [Compound 1c, lepidiline C, reference compound]
CC50 at 48 h [1]: < 80 µM
CC50 (LLC-MK2 cells [2]): 28.3 ± 5.86 µM
viability at 48 h, 10 µM [3]: 90.7%
Cell line (viability %) LLC-MK2 (LLC-MK2 cells [12]): 78.4%
viability at 48 h, 10 µM [13]: 8.8%
viability at 48 h, 10 µM [5]: 76.7%
viability at 48 h, 10 µM [6]: 8.9%
IC50 [7, 24]: > 2.83e-05 M
viability at 10 µM [8]: 7.7%
viability at 10 µM ([9]; Human mastadenovirus C, read-out: Cell line (viability %) AdV5): 17.9%
viability at 10 µM ([10]; Human alphaherpesvirus 1, antiviral screening, read-out: Cell line (viability %) HSV-1): 18.6%
viability at 10 µM ([11]; Human respirovirus 3, antiviral screening, read-out: Cell line (viability %) HPIV-3): 90.4%

Cc1c(C)[n+](OCc2ccccc2)cn1Cc1ccccc1C(F)(F)F.[Br-] [Compound 8c, 3-Benzyloxy-4,5-dimethyl-1-(2-(trifluoromethyl)benzyl)imidazolium bromide]
CC50 at 48 h [14]: 53.7 ± 1.53 µM
CC50 at 48 h [1]: 55 ± 1 µM
CC50 at 48 h [15]: 28.5 ± 0.5 µM
CC50 at 48 h [16]: 45.7 ± 3.79 µM
CC50 at 48 h [17]: 16 ± 1 µM
CC50 at 48 h [18]: 7.37 ± 0.32 µM
CC50 at 48 h [19]: 95 ± 1 µM
IC50 [20]: > 45.7 µM
IC50 [21]: > 28.5 µM
IC50 [22]: > 16 µM
IC50 [23]: > 53.7 µM
IC50 [7, 25]: > 5.5e-05 M
melting point: 123 to 125 °C

Cc1c(C)[n+](OCc2ccccc2)cn1Cc1ccc(C(F)(F)F)cc1.[Br-] [Compound 8d, 3-Benzyloxy-4,5-dimethyl-1-[4-(trifluoromethyl)benzyl]imidazolium bromide]
CC50 at 48 h [14]: 229 ± 9.02 µM
CC50 at 48 h [1]: 7.5 ± 1 µM
CC50 at 48 h [15]: 283 ± 10.4 µM
CC50 at 48 h [16]: 59.7 ± 2.52 µM
CC50 at 48 h [17]: 5.5 ± 0.5 µM
CC50 at 48 h [18]: 5.07 ± 0.12 µM
CC50 at 48 h [19]: 322 ± 5.77 µM
IC50 [20]: > 59.7 µM
IC50 [21]: > 283 µM
IC50 [22]: > 5.5 µM
IC50 [23]: > 229 µM
IC50 [7, 25]: > 7.5e-06 M
melting point: 180 to 182 °C (dec.)
